Source: patent publication US8722896B2, “Prokineticin receptor antagonists and uses thereof” (The Regents of the University of California, priority 2008, dated 2014)

biological target: recombinant PKR1 (Homo sapiens (Human), UniProt Q8TCW9); assay: Aequorin-based Ca2+ mobilization antagonist assay, CHO cells expressing PKR1; format: cell-based; details: not given
Method: An aequorin-based luminescent assay for calcium mobilization was used to measure mobilization of intracellular Ca^2+ (Bullock et al., Mol Pharmacol 65, 582-588, 2004). Chinese hamster ovary (CHO) cells stably expressing photoprotein aequorin and recombinant PKR1 or PKR2 were tested by this method. Briefly, the cells were charged in Opti-MEM (Invitrogen) containing 8 μM of coelenterazine cp at 37° C. for 2 hours. Cells were detached by brief typsinization and maintained in Hank's Balanced Salt Solution (HBSS) plus 10 mM HEPES (pH7.5) and 0.1% BSA at about 5×10^5 cells/ml. Luminescence measurements were made using a Berthold luminometer.
All compounds were diluted in HBSS plus 10 mM HEPES (pH7.5) and 0.1% BSA. To test the agonist activity, 100 μl of cells were injected into the tubes with 20 μl of compounds. For antagonist assays, 80 μl cells were incubated in the tubes with 20 μl different concentrations of antagonists at room temperature for 20 minutes, and then 100 μl of recombinant PK2 were injected. The IC50 obtained from the assays were then converted to Ki values using the formula: IC50/(1+[PK2]/EC50PK2).
The following compounds were prepared using the above synthetic routes and protocols by varying the starting materials, reagents or conditions used. The requisite reagents were either commercially available, described in the literature, or readily synthesized by one skilled in the art. The potency of these compounds in antagonizing PK2-stimulated calcium mobilization were tested in Chinese hamster ovary (CHO) cells that stably express recombinant PKR1 or PKR2.

SMILES	Ki [nM]
CCc1c(C)cccc1CNCC(C)C(=O)N(Cc1cc(Cl)c2c(c1)OCCCO2)CC(C)C (racemic)	226
CC(C)CN(Cc1cc(Cl)c2c(c1)CCCCO2)C(=O)C1CN(Cc2cccc3cc[nH]c23)CCO1 (racemic)	4.02
CC(C)CN(Cc1cc(Cl)c2c(c1)CCCCO2)C(=O)[C@@H]1CCN(Cc2cccc3c2ccn3C)C1	11.6
Cc1cccc(CNCC(C)C(=O)N(Cc2cc(Cl)c3c(c2)OCCCO3)CC(C)C)c1C (racemic)	13
CC(C)CN(Cc1cc(Cl)c2c(c1)OCCCO2)C(=O)C(C)CNCc1cccc2ccn(C)c12 (stereo not drawn)	16.5
CC(C)CN(Cc1cc(Cl)c2c(c1)OCCCO2)C(=O)[C@H](C)CNCc1cc(F)c(F)cc1F	258
CC(C)CN(Cc1cc(Cl)c2c(c1)CCCCO2)C(=O)[C@@H]1CCCN(Cc2cccc3ccn(C)c23)C1	9.42
Cc1cccc(CNCC(C)C(=O)N(Cc2cc(Cl)c3c(c2)OCCCO3)CC(C)C)c1 (racemic)	44.2
COc1ccccc1CN1CC[C@@H](C(=O)N(Cc2ccc3c(c2)OCCCO3)CC(C)C)C1	12.8
CC(C)CN(Cc1cc(Cl)c2c(c1)OCCCO2)C(=O)[C@@H]1CCN(Cc2ccc(F)c(N)c2)C1	24
CC(C)CN(Cc1cc(Cl)c2c(c1)OCCCO2)C(=O)C(C)CNCc1cccc2c1OCCO2 (racemic)	58.4
Cc1cccc(C)c1CNCC(C)C(=O)N(Cc1cc(Cl)c2c(c1)OCCCO2)CC(C)C (racemic)	44
CC(C)CN(Cc1cc(Cl)c2c(c1)OCCCO2)C(=O)C(C)CNCc1cccc2c1OCO2 (stereo not drawn)	44.8
CC(C)CN(Cc1cc(Cl)c2c(c1)OCCCO2)C(=O)[C@@H]1CCCN(Cc2cccc3c2NCC3)C1	3.29
COc1ccccc1CN1CCC[C@@H](C(=O)N(Cc2ccc3c(c2)OCCCO3)CC(C)C)C1	38.6

Results, then the molecule that gave them:

Ki [nM]	SMILES
24.4	CC(C)CN(Cc1cc(Cl)c2c(c1)OCCCO2)C(=O)C1CN(Cc2cccc3ccn(C)c23)CCO1 (racemic)
29.4	Cc1cccc(CN2CCC[C@@H](C(=O)N(Cc3cc(Cl)c4c(c3)OCCCO4)CC(C)C)C2)c1
12.5	CC(C)CN(Cc1cc(Cl)c2c(c1)OCCCO2)C(=O)C1CN(Cc2cccc3c2ccn3C)CCO1 (racemic)
2200	CC(C)CN(Cc1cc(Cl)c2c(c1)OCCCO2)C(=O)C1CCN(Cc2ccccc2)O1 (racemic)
133	CC(C)CN(Cc1cc(Cl)c2c(c1)OCCCO2)C(=O)[C@@H]1CCN(Cc2cccc(N)c2)C1
9.94	CC(C)CN(Cc1cc(Cl)c2c(c1)CCCCO2)C(=O)C1CN(Cc2cccc3ccn(C)c23)CCO1 (racemic)
83	Cc1ccc(C)c(CN2CCOC(C(=O)N(Cc3cc(Cl)c4c(c3)OCCCO4)CC(C)C)C2)c1 (racemic)
226	CCc1c(C)cccc1CN1CC[C@@H](C(=O)N(Cc2cc(Cl)c3c(c2)OCCCO3)CC(C)C)C1
19.6	Cc1ccccc1CNCC(C)C(=O)N(Cc1cc(Cl)c2c(c1)OCCCO2)CC(C)C (racemic)
88.8	CCc1cccc(CN2CC[C@@H](C(=O)N(Cc3cc(Cl)c4c(c3)OCCCO4)CC(C)C)C2)c1
38	CC(C)CN(Cc1cc(Cl)c2c(c1)OCCCO2)C(=O)[C@@H]1CCCN(Cc2cccc3[nH]ccc23)C1
38.8	COc1ccccc1CN1CCC[C@@H](C(=O)N(Cc2cc(Cl)c3c(c2)OCCCO3)CC(C)C)C1
37.4	Cc1ccccc1CN1CCOC(C(=O)N(Cc2cc(Cl)c3c(c2)OCCCO3)CC(C)C)C1 (racemic)

same assay, conditions: antagonism of PK2-stimulated calcium mobilization in CHO cells; Ki = IC50/(1+[PK2]/EC50PK2); read-out: Ki for PKR1

Ki [nM]	SMILES
7.72	COc1cc(F)ccc1CN1CC[C@@H](C(=O)N(Cc2cc(Cl)c3c(c2)OCCCO3)CC(C)C)C1 [(−)-(3R)-1-(4-Fluoro-2-methoxybenzyl)-N-(9-chloro-3,4-dihydro-2H-1,5-benzodioxepin-7-ylmethyl)-N-isobutylpyrrolidine-3-carboxamide]
9.66	COc1cc(CN2CC[C@@H](C(=O)N(Cc3cc(Cl)c4c(c3)OCCCO4)CC(C)C)C2)ccc1F [(−)-(3R)-1-(4-Fluoro-3-methoxybenzyl)-N-(9-chloro-3,4-dihydro-2H-1,5-benzodioxepin-7-ylmethyl)-N-isobutylpyrrolidine-3-carboxamide]
224	CC(C)CN(Cc1cc(Cl)c2c(c1)OCC(F)(F)CO2)C(=O)[C@@H]1CCN(Cc2ccccc2)C1 [(−)-(3R)-1-Benzyl-N-(9-chloro-3,3-difluoro-3,4-dihydro-2H-1,5-benzodioxepin-7-ylmethyl)-N-isobutylpyrrolidine-3-carboxamide]
11.6	COc1cc(CNCC(C)C(=O)N(Cc2cc(Cl)c3c(c2)OCCCO3)CC(C)C)ccc1F (racemic) [(±)-2-Methyl-3-((3-methoxy-4-fluoro)benzylamino)-N-(9-chloro-3,4-dihydro-2H-1,5-benzodioxepin-7-ylmethyl)-N-isobutylpropanamide]
104	CC(C)CN(Cc1cnc2c(c1)OCCCO2)C(=O)C1CCCN(Cc2cccc3cc[nH]c23)C1 (single isomer, unassigned; (-))
8.68	COc1cc(CN2CCC[C@@H](C(=O)N(Cc3cc(Cl)c4c(c3)OCCCO4)CC(C)C)C2)ccc1F [(−)-(3R)-1-(4-Fluoro-3-methoxybenzyl)-N-(9-chloro-3,4-dihydro-2H-1,5-benzodioxepin-7-ylmethyl)-N-isobutylpiperidine-3-carboxamide]
87.3	CC(C)CN(Cc1cc(Cl)c2c(c1)OCCCO2)C(=O)[C@@H]1CCCN(Cc2cccc3c2N(C)CC3)C1 [(−)-(3R)-1-(N-methyl-indolin-7-ylmethyl)-N-(9-chloro-3,4-dihydro-2H-1,5-benzodioxepin-7-ylmethyl)-N-isobutylpiperidine-3-carboxamide]
65.2	COc1cc(F)ccc1CN1CCC[C@@H](C(=O)N(Cc2cc(Cl)c3c(c2)OCCCO3)CC(C)C)C1 [(−)-(3R)-1-(4-Fluoro-2-methoxybenzyl)-N-(9-chloro-3,4-dihydro-2H-1,5-benzodioxepin-7-ylmethyl)-N-isobutylpiperidine-3-carboxamide]
50	COc1cc(F)ccc1CNCC(C)C(=O)N(Cc1cc(Cl)c2c(c1)OCCCO2)CC(C)C (racemic) [(±)-2-Methyl-3-((2-methoxy-4-fluoro)benzylamino)-N-(9-chloro-3,4-dihydro-2H-1,5-benzodioxepin-7-ylmethyl)-N-isobutylpropanamide]

SMILES	Ki [nM]
CC(=O)Oc1cccc(CN2CCOC(C(=O)N(Cc3cc(Cl)c4c(c3)OCCCO4)CC(C)C)C2)c1 (racemic) [(±)-(3R)-1-(3-acetoxybenzyl)-N-(9-chloro-3,4-dihydro-2H-1,5-benzodioxepin-7-ylmethyl)-N-isobutylmorpholine-3-carboxamide]	8.5
CC(=O)Oc1cccc(CN2CCC[C@@H](C(=O)N(Cc3cc(Cl)c4c(c3)OCCCO4)CC(C)C)C2)c1 [(−)-(3R)-1-(3-acetoxybenzyl)-N-(9-chloro-3,4-dihydro-2H-1,5-benzodioxepin-7-ylmethyl)-N-isobutylpiperidine-3-carboxamide]	107
